From PMC2754199 (Journal of biomolecular screening, 2008)
Peptide text beside a SMILES is read from it. * marks the point of attachment. Cbz = O=C(OCc1ccccc1)*

System: calpain
Test: cell-based luminescent calpain activity assay

Work on `CC(C)[C@H](NC(=O)OCc1ccccc1)C(=O)N[C@H](C=O)Cc1ccccc1` [MDL-28170] (Cbz-Val-Phe-aldehyde) yielded an EC50 of 14 ± 1.4 µM.
